Data set [1] has as its system ExoA intoxicated C38 cells. The class given is cell-based, Human.
For data set [2], the system named is Saccharomyces cerevisiae cells expressing the catalytic domain of P. aeruginosa ExoA (ExoAc). As to the kind of experiment: Yeast-based compound screen. The class given is cell-based. The settings on record: compound 50 μM; w303 strain; growth restored.
Data set [3] has as its system C38 cells in the presence of 650 ng/mL of ExoA. As to the kind of experiment: Determination of half-maximal effective concentration (EC50) in C38 cells. It counts as cell-based, Human. To be noted: 96 h. As to the method:
Cell viability was determined using the same method as the cytoprotection assay. The EC50 values were extrapolated from each corresponding line-of-best-fit (Sigmoidal function in Origin 6.1), and the average values reported±the standard deviation.

For data set [4], the target named is WT ExoAc (Pseudomonas aeruginosa, UniProt P11439). Nature of the data set: biochemical. The class given is binding, P. aeruginosa.
WT ExoAc, sequence (P11439 430-638 limits assumed): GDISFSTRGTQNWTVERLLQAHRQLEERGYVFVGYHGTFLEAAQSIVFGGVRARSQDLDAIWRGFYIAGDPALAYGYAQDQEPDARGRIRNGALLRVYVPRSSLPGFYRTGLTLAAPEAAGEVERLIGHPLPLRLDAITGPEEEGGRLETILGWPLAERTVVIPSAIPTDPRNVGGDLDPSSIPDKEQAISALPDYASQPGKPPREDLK
For data set [5], the target named is cholix toxin (Vibrio cholerae, UniProt Q5EK40). As to the kind of experiment: biochemical. The class given is biochemical.
cholix toxin, sequence (Q5EK40 33-666 limits assumed): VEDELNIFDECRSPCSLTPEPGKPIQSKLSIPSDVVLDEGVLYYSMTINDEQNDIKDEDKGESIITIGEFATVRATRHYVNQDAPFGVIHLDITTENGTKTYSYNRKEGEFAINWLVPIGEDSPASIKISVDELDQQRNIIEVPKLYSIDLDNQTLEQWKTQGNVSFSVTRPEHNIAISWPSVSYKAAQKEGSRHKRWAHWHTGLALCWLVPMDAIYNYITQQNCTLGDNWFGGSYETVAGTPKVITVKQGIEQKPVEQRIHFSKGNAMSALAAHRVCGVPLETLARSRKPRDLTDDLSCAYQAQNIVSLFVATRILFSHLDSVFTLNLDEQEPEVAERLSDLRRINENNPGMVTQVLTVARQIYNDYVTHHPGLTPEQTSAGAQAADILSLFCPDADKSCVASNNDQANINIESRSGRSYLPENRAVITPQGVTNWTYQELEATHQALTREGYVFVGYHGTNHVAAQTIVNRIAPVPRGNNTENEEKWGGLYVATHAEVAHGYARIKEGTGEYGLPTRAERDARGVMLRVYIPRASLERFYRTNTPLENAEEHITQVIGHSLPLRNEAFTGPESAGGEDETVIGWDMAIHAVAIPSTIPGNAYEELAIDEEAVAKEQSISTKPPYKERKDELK
The test system of data set [6] is C38 cells. Nature of the data set: Mammalian C38 cell drug sensitivity assay (MTT). The class given is cell-based, Human. The settings on record: compound 50 μM. As to the method: The C38 cells were cultured in 25 cm^2 culture flasks containing LHC-8 media with 5% fetal bovine serum at 37° C. in 5% CO2 until 90-100% confluency. The cells were washed with phosphate-buffered saline (PBS) and then detached from the culture flask by treating the cells with Puck's Saline Solution containing 0.02% EDTA. The cell suspension was diluted to a final density of 1.0×10^5 cells/mL and 100-μL aliquots were used to seed a 96-well plate. The cells were then grown in the presence of 50 μM of inhibitor (nonpolar compounds required 0.5% DMSO for solubility).

The text below walks through data of US20120142682A1, “ANT[…] INHIBITING BACTERIAL MONO-ADP-RIBOSYLT[…]” (UNIVERSITY OF GUELPH, priority 2010, published 2012).

SMILES strings stand for the structures. Where two headings read alike, the source gives them in different places.

As for `O=C1NN=C(CN2CCOCC2)c2c[nH]c3cccc1c23` [Compound P1], in data set [1], the “protection of C38 cells from lethal action of high dose ExoA (morphology)” value is reported as “completely protected”. Further, the “Protection in Yeast” value in data set [2] is reported as “− (Compounds showing less than 5% growth were scored (−))”. In addition, in data set [3] (650 ng/ml ExoA (10-times LD50), NAP and V30 with 0.5% DMSO), the EC50 stood at 2900 ± 800 nM. The “difference in affinity between the two binding sites” value in data set [4] is on record as roughly 50 fold. The Kd is 10 nM in data set [4] (read-out: Kd) and 650 nM in data set [4] (read-out: Kd, second (lower affinity) binding constant (converted)). Besides, the Ki in data set [5] (read-out: Ki) is 22 ± 4 nM.
In the case of `CN(C)CCCOc1ccc(-c2nc3cccc4c3n2CCNC4=O)cc1` [Compound P2], in data set [2], the “Protection in Yeast” value was “− (Compounds showing less than 5% growth were scored (−))”. The Kd in data set [4] (read-out: Kd) amounted to 260 ± 10 nM. In addition, in data set [5] (read-out: IC50), the IC50 came out at 480 ± 40 nM. Moreover, the inhibition constant (Ki) in data set [5] (read-out: Ki) came out at 63 ± 5 nM. In addition, the “toxicity to C38 cells” value in data set [6] was “toxic”.
The matching figures for `CN1CCN(C2CCC3NC(O)C4CCCCC4C3N2)CC1` (centres unmarked) [Compound P3]: “− (Compounds showing less than 5% growth were scored (−))”, 1470 ± 30 nM, 690 ± 130 nM, 90 ± 17 nM and “toxic”.
For the molecule `O=c1[nH]nc2c3c(cccc13)N=CN2` [Compound P7], the “Protection in Yeast” value in data set [2] is listed as “− (Compounds showing less than 5% growth were scored (−))”. Also, in data set [4] (read-out: Kd), the Kd amounted to 680 ± 40 nM. The half-inhibitory concentration (IC50) in data set [5] (read-out: IC50) worked out at 908 ± 118 nM. The Ki in data set [5] (read-out: Ki) was 118 ± 7 nM. In addition, the “toxicity to C38 cells” value in data set [6] is on record as “toxic”.
Take `CC1=C(C)C2C(=O)CC(SCC(=O)NCCO)=CC2S1` (centres unmarked) [Compound V30]: in data set [1], the “protection of C38 cells against ExoA (in words)” value is listed as “excellent protection” and the “protection of C38 cells from lethal action of high dose ExoA (morphology)” value is reported as “completely protected”. Moreover, in data set [2], the “Protection in Yeast” value is “− (Compounds showing less than 5% growth were scored (−))”. For the same molecule, in data set [3] (Homo sapiens), the EC50 is 8800 ± 500 nM. The molecule further yielded a Kd in data set [4] of 931 ± 74 nM. In data set [5], this molecule gave an IC50 of 2810 nM and a Ki of 367 ± 3 nM.

One may read the EC50 as the concentration that produces a half-maximal response. What is called Kd is the constant that tells how readily two partners part at equilibrium. As usually defined, the Ki is the dissociation constant of the complex between target and ligand, obtained from inhibition or displacement. What is called IC50 is the midpoint of a concentration-inhibition curve.
